Patent US6207411A, “Bacteriocins” (priority 1995, dated 2001)

Tests used:
DPC3147 = assay: MIC of pure nisin; assay type: cell-based, Lactococcus lactis; settings: pure nisin against strain DPC3147
Description: (§1) As expected, catalase had no effect on the antimicrobial activity of the 3147 bacteriocin thus eliminating the possibility that the antimicrobial activity may be due to hydrogen peroxide. In addition, none of the strains producing lacticin 3147 were capable of fermenting sucrose. This provides additional evidence that this bacteriocin is not nisin, since the genes encoding nisin (nis A) is linked to genes responsible for sucrose catabolism on the nisin-sucrosetransposon. Tn5276 (Horn et. al., 1991). Thus, all those Nip^+ (nisin-producing) strains studied to date are in addition Suc^+ (Sucrose-fermenting).

NCDO496 = assay: MIC of pure nisin; assay type: cell-based, Lactococcus lactis; settings: pure nisin against strain NCDO496
Description: as §1

[1] = test system: Streptococcus dysgalactiae M; assay: Frequency of resistance development of a mastitic strain; assay type: cell-based; settings: prolonged exposure
Description: As a result of the growing concern over the use of antibiotics for the treatment and prevention of disease in animals the potential of using lacticin 3147 in the prevention of bovine mastitis was investigated. To achieve this the bacteriocin was incorporated into teat seals preparations. These seals are manufactured by Cross Vetpharm (Broomhill Road, Tallaght, Dublin 24. Ireland) and act as a physical barrier in the cow against infection. The bacteriocin provides an additional anti-microbial barrier over the physical one provided by the seal itself. Incorporation of the bacteriocin into the teat seals first required the preparation of the bacteriocin in a highly concentrated and semi-purified form. The anti-microbial effectiveness of lacticin 3147 in the environment of the seal required the addition of either Tween 20 or 80 in concentrations of 2% (FIG. 14A). […] Having successfully prepared effective bacteriocin-containing teat seals a number of animal trials were then performed. These involved exposure of the modified seals to the animal for different time periods after which the seals were removed. […] Other aspects of this study focused on the frequency at which a mastitic strain can develop resistance to lacticin 3147 since this could limit its practical usefulness as an effective antimicrobial under certain conditions. […]

[2] = Bacteriocin activity in teat seals; settings: teat seal without Tween 20 or 80 (2% required)
Procedure: FIG. 14A. Antimicrobial effectiveness of lacticin 3147 requires the presence of Tween Au/ml) has been added.
TY (Tryptone 2.5 g/L, Yeast Extract 5 g/L, Glucose 10 g/L, b-glycerophosphate 19 g/L, MgSO4.7H2O 0.25 g/L, MnSO4.4H2O 0.05 g/L, pH 6.75) broth was prefiltered (15 filter/liter) with HA (Millipore) filters to remove proteins in the media which would bind to the filters. L. lactis DPC 3147 was then grown overnight in the filtered TY-broth. The culture was centrifuged at 10,000 rpm for 15 minutes and then filtered through HVLP filters (Millipore). The bacteriocin was then bound to HA filters (8 filters/liter) and subsequently harvested from the filters using acetone/5 mM Phosphate-Buffer, pH 7.0 (2:1). The mix was subsequently centrifuged and the acetone removed by evaporation. The resultant bacteriocin preparation was freeze-dried and dissolved in sterile distilled water. This was then assayed as above. To add bacteriocin into the teat seal 17,000 units of the bacteriocin prepared as above was added to the seal in a sterile petri disc. On mixing, the bacteriocin and seal formed as emulsion which was then aseptically transferred to a syringe (Cross Vetpharm).

[3] = test system: four cariogenic streptococci; assay: Sensitivity of oral streptococci; assay type: cell-based; settings: four cariogenic strains from infected patients
Procedure: Four cariogenic streptococcal strains isolated from infected patients were grown overnight at 30° C. in Brain Heart Infusion broth. These strains were obtained from Dr. Ger Fitzgerald, University College Cork. The relative sensitivity of each of these strains to the bacteriocin was then determined in comparison to L. lactis HP.

[4] = test system: L. lactis subsp. lactis MG1614; assay: Spontaneous resistance on media containing lacticin 3147; assay type: cell-based, Lactococcus lactis; settings: MG1614 plated up to 10^8 -10^9 CFU/ml
Procedure: Plates containing bacteriocin were prepared as follows. A cell-free, sterile bacteriocin solution was obtained from an overnight culture of L. lactis DPC3147 grown in GM17 by first centrifuging at 8000 g (Sorvall RC-5B) for 10 min. The resulting supernatant was then sterilized by filtering with Millipore HVLP filters (0.45 um) and tempered to 45° C. An equal volume was then added to double strength GM17 and the plates were poured. Where needed, streptomycin was added to agar at a concentration of 500 μg/ml.
During initial genetic work with lacticin 3147, it was observed that the bacteriocin-producing property was an easily lost trait. Preliminary experiments were attempted to establish if bacteriocin production by DPC3147 was encoded on a conjugally transmissable piece of DNA. These conjugal matings involved using DPC3147 as the donor strain and the plasmid-free strain, L. lactis subsp. lactis MG1614, which is streptomycin resistant as the recipient. The selection of transconjugants from such matings was achieved using the plasmid-encoded bacteriocin immunity/resistance determinants as a selectable marker. This involved the incorporation of lacticin 3147 into the selective media. […] The incorporation of lacticin 3147 into selective media may thus form the basis for a novel food-grade marker system for use in genetic manipulation of lactococci. […]

L. lactis AM2 = assay: Bacteriocin assayed directly in cheese samples; design: species or system Lactococcus lactis
Procedure: Bacteriocin activity was assayed from cheese samples as follows. Cheese samples were initially macerated in equal volumes of distilled water in a stomacher (Lab-Blender 400) for 15 min and heated to 80° C. for 10 min. Then aliquots of 50 μl were dispensed in wells and bacteriocin activity calculated as the difference in area of the zone of inhibition (in mm2) and the area of the well (as outlined previously).
Since then we have assayed the bacteriocin in these cheeses. In Cheese trial 1 the presence of lacticin 3147 in take test cheese was confirmed (using L. lactis AM2 as the indicator strain) at a level of approximately 1.280 AU/ml which remained constant in the cheese over the 28-week ripening period (FIG. 13A). In contrast, no anti-microbial activity was detected in the control cheese. Similarly, the amount of bacteriocin detected in cheese trial 2 was approximately 1.280 AU/ml which also remained constant over the ripening period (FIG. 13B). Thus the level of bacteriocin observed in the cheese corresponds to the number of NSLABs which occur in the cheese during ripening.

Catalase = assay: Protease sensitivity assay (catalase); settings: enzyme 50 mg/ml
Procedure: (§2) The following enzymes were dissolved in sterile distilled H2 O (SDW) to a final concentration of 50 mg/ml: Trypsin (type II, Sigma Chemical Co., Poole, Dorset, England), alpha-chymotrypsin (type II, Sigma), Proteinase K (Sigma), Pronase E (type XIV, Sigma), Catalase (Sigma). Pepsin was dissolved in 0.02N HCl, also to a final concentration of 50 mg/ml. All enzyme solutions were filter sterilised using disposable filters (Rotrand/Red rim 0.2 μm, Schleicher & Schuell). 20 μl aliquots of filtered cell-free bacteriocin solution and 20 μl of each enzyme solution were spotted 1 cm apart on GM17 agar plates and dried for 30 min. All plates were incubated overnight at 30° C. The plates move subsequently overlaid with the indicator organism. […] was evident as a zone of inhibition. Controls included plates with spots of either bacteriocin solution or enzyme solution.

[5] = test system: Streptococcus dysgalactiae M; assay: Effectiveness on Streptococcus dysgalactiae M (plate counts); assay type: cell-based; settings: 10.240 AU/ml, stationary phase cells, 2 hours, 37° C.
Procedure: FIG. 14B. Effect of adding lacticin 3147 (10.240 AU/ml) to stationary cells of Streptococcus dysgalactiae.
10 μl from a overnight culture was added to 490 μl of sterile 50 mM phosphate-buffer. pH 7.0 500 μl lacticin 3147 (10,000 AU/ml) was then added and plate counts were carried out after 0, 15, 30, 60, 90 and 120 minutes at 37° C. to assess cell viability.

Proteinase K = target: T1, Proteinase K (Parengyodontium album, UniProt P06873); assay: Protease sensitivity assay; settings: enzyme 50 mg/ml spotted beside bacteriocin; indicator L. lactis HP
T1 construct: purchased Sigma
T1 sequence (P06873 106-384): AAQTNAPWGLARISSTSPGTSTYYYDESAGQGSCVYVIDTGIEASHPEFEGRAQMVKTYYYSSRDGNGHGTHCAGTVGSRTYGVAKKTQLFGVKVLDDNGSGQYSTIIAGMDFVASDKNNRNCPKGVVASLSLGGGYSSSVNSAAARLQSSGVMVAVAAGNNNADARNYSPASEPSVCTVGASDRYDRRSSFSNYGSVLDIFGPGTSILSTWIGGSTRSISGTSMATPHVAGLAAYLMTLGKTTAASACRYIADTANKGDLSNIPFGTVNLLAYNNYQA
Procedure: (§3) FIGS. 2A, 2B, 2C, 2D, and 2E. Protease Sensitivity Assay. Filtered cell-free bacteriocin solution and enzyme solution (A represents control, no enzyme; B, alpha-chymotrypsin; C, trypsin; D, pronase E and E represents proteinase K) were spotted 1 cm apart on GM17 agar plates and subsequently overlaid with the indicator L. lactis strain HP.
as §2

alpha-chymotrypsin = target: T2, alpha-chymotrypsin (Bos taurus, UniProt P00766, DEL14-15/DEL147-148); assay: Protease sensitivity assay; settings: enzyme 50 mg/ml spotted beside bacteriocin; indicator L. lactis HP
T2 construct: purchased Sigma type II
Procedure: as §3, §2

Pronase E = assay: Protease sensitivity assay; settings: enzyme 50 mg/ml spotted beside bacteriocin; indicator L. lactis HP
Procedure: as §3, §2

Trypsin = target: T3, Trypsin (Sus scrofa, UniProt P00761); assay: Protease sensitivity assay; settings: enzyme 50 mg/ml spotted beside bacteriocin; indicator L. lactis HP
T3 construct: purchased Sigma Chemical Co., Poole, Dorset, England type II
T3 sequence (P00761 9-231): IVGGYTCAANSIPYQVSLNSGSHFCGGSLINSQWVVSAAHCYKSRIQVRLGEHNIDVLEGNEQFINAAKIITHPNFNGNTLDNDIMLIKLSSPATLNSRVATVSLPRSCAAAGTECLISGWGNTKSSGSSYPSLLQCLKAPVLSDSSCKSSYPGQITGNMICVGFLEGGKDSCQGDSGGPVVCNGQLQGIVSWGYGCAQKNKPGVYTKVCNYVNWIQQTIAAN
Procedure: as §3, §2

Pepsin = assay: Protease sensitivity assay; settings: enzyme 50 mg/ml in 0.02N HCl
Procedure: as §2

[6] = assay type: physicochemical; settings: pH 9, up to 100° C., 10 minutes; 100% = unheated at that pH
Procedure: FIG. 6. Effect of heating at 60° C. to 121° C. for 10 minutes on the stability of lacticin 3147 at pH5, pH7, pH9. 100% activity is the activity at pH 5, 7 and 9 with no heating.
A cell-free bacteriocin was exposed to various pH/temperature treatments. Samples were heated to 60, 70, 80, 90, 100, 110 and 121° C. at pH5, pH7 and pH9 for 10 min. Following treatment, all solutions were rapidly cooled and bacteriocin activity was assayed by the well diffusion method.
Three samples of bacteriocin were brought to a pH of 5, 7 and 9 and aliquots of each were subsequently heated to 60° C., 70° C., 80° C., 90° C., 100° C., 110° C. and 121° C. for 10 minutes. The activity at each pH prior to heat treatment was measured and was taken to be 100% for that pH value. From the graphical representation in FIG. 6, it can be seen that lacticin 3147 is heat-stable, particularly at an acid pH.

Substance: nisin
- minimum concentrations (MIC) required for inhibition (DPC3147): 100 µg/mL
- minimum concentrations (MIC) required for inhibition (NCDO496): 400 µg/mL

Substance: lacticin 3147
- Bacterial cells that developed increased tolerance [1]: 0.003%
- Bacteriocin activity in treated seals [2]: negligible bacteriocin activity
- Sensitivity relative to L. lactis HP [3]: 12.5%
- Growth of sensitive cells on media containing lacticin 3147 [4]: failed to grow
- Level of bacteriocin in cheese (L. lactis AM2; cheese trial 1, constant over the 28-week ripening period): approximately 1.280 AU/ml
- Level of bacteriocin in cheese (L. lactis AM2; cheese trial 2, constant over the ripening period): approximately 1.280 AU/ml
- Effect of catalase on antimicrobial activity (Catalase): no effect
- Kill [5]: 99.99%
- Sensitivity to proteinase K (Proteinase K): sensitive
- Sensitivity to alpha-chymotrypsin (alpha-chymotrypsin): sensitive
- Sensitivity to pronase E (Pronase E): sensitive
- Sensitivity to trypsin (Trypsin): sensitive
- Sensitivity to pepsin (Pepsin): not to pepsin
- Activity maintained after heating [6]: more than 50%
